Test results published in ChEMBL document CHEMBL1201862, “PubChem BioAssay data set” (2004).
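Interpolation was linear, between the two tested concentrations surrounding the appropriate level; five concentrations were tested over 48 hours in 96-well plates. At the GI50, growth is halved.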 Active and inactive are the calls of the source. No stated cut-off is given here; in the data, active = GI50 up to about 1.1 µM and inactive = higher.

Key:
Assay in all cases: NCI anticancer screen, dose series, 48 h
SR = test system: SR
U-251 = test system: U-251
HCT-116 = test system: HCT-116
UACC-257 = test system: UACC-257
DU-145 = test system: DU-145
CAKI-1 = test system: CAKI-1
SK-MEL-28 = test system: SK-MEL-28
EKVX = test system: EKVX
NCI-H23 = test system: NCI-H23
HT-29 = test system: HT-29
OVCAR-5 = test system: OVCAR-5
OVCAR-8 = test system: OVCAR-8
MDA-N = test system: MDA-N
HOP-62 = test system: HOP-62
NCI/ADR-RES = test system: NCI/ADR-RES
HCT-15 = test system: HCT-15
SW-620 = test system: SW-620
A498 = test system: A498

COc1ccc2nc3c([N+](=O)[O-])ccc(NCCCN(C)C)c3c(N)c2c1
GI50 (SR): 0.721 µM (active) | GI50 (U-251): 1.57 µM (inactive) | GI50 (HCT-116): 0.316 µM (active) | GI50 (UACC-257): > 10 µM (inactive) | GI50 (DU-145): 1.67 µM (inactive) | GI50 (CAKI-1): 1.81 µM (inactive) | GI50 (SK-MEL-28): 1.62 µM (inactive) | GI50 (EKVX): 1.74 µM (inactive) | GI50 (NCI-H23): 1.99 µM (inactive) | GI50 (HT-29): 0.845 µM (active) | GI50 (OVCAR-5): 1.43 µM (inactive) | GI50 (OVCAR-8): 1.75 µM (inactive) | GI50 (MDA-N): 1.82 µM (inactive) | GI50 (HOP-62): 1.78 µM (inactive) | GI50 (NCI/ADR-RES): 1.64 µM (inactive) | GI50 (HCT-15): 1.3 µM | GI50 (SW-620): 0.405 µM (active)

CC#CC#C/C(=C/C=CC(=O)OC)SC
GI50 (SR): > 10 µM (inactive) | GI50 (U-251): > 100 µM (inactive) | GI50 (HCT-116): > 100 µM (inactive) | GI50 (UACC-257): > 100 µM (inactive) | GI50 (DU-145): > 100 µM (inactive) | GI50 (CAKI-1): > 100 µM (inactive) | GI50 (SK-MEL-28): > 100 µM (inactive) | GI50 (EKVX): > 100 µM (inactive) | GI50 (HT-29): > 100 µM (inactive) | GI50 (OVCAR-5): > 100 µM (inactive) | GI50 (OVCAR-8): > 100 µM (inactive) | GI50 (MDA-N): > 100 µM (inactive) | GI50 (NCI/ADR-RES): > 100 µM (inactive) | GI50 (A498): > 100 µM (inactive) | GI50 (HCT-15): > 100 µM | GI50 (SW-620): > 100 µM (inactive)

O=[N+]([O-])c1sc2ccc(Cl)cc2c1Nc1ccc(Cl)cc1
GI50 (U-251): > 100 µM (inactive) | GI50 (DU-145): > 100 µM (inactive) | GI50 (SK-MEL-28): > 100 µM (inactive) | GI50 (EKVX): > 100 µM (inactive) | GI50 (NCI-H23): > 100 µM (inactive) | GI50 (HT-29): > 100 µM (inactive) | GI50 (OVCAR-5): > 100 µM (inactive) | GI50 (OVCAR-8): > 100 µM (inactive) | GI50 (HOP-62): > 100 µM (inactive) | GI50 (NCI/ADR-RES): > 100 µM (inactive) | GI50 (A498): > 100 µM (inactive) | GI50 (HCT-15): > 100 µM | GI50 (SW-620): > 100 µM (inactive)

CCCCP(CCCC)(CCCC)=C(C(=O)OC)C(C(=O)OC)=C1SC(C(=O)OC)=C(C(=O)OC)S1
GI50 (SR): 34.8 µM (inactive) | GI50 (U-251): 16 µM (inactive) | GI50 (HCT-116): 12 µM (inactive) | GI50 (UACC-257): 17.6 µM (inactive) | GI50 (DU-145): 40.8 µM (inactive) | GI50 (SK-MEL-28): 15.5 µM (inactive) | GI50 (EKVX): 27.2 µM (inactive) | GI50 (NCI-H23): 17.5 µM (inactive) | GI50 (HT-29): 14.5 µM (inactive) | GI50 (OVCAR-5): 23 µM (inactive) | GI50 (OVCAR-8): 20.7 µM (inactive) | GI50 (HOP-62): 20.4 µM (inactive) | GI50 (NCI/ADR-RES): > 10 µM (inactive) | GI50 (HCT-15): 30.5 µM | GI50 (SW-620): 23.4 µM (inactive)

CC1CC(=O)Nc2ccccc2N1C(=O)C1CC1 (stereo not drawn)
GI50 (U-251): > 100 µM (inactive) | GI50 (HCT-116): > 100 µM (inactive) | GI50 (UACC-257): > 100 µM (inactive) | GI50 (DU-145): > 100 µM (inactive) | GI50 (CAKI-1): > 100 µM (inactive) | GI50 (SK-MEL-28): > 100 µM (inactive) | GI50 (EKVX): > 100 µM (inactive) | GI50 (NCI-H23): > 100 µM (inactive) | GI50 (HT-29): > 100 µM (inactive) | GI50 (OVCAR-5): > 100 µM (inactive) | GI50 (OVCAR-8): > 100 µM (inactive) | GI50 (MDA-N): > 100 µM (inactive) | GI50 (HOP-62): > 100 µM (inactive) | GI50 (A498): > 100 µM (inactive) | GI50 (HCT-15): > 100 µM | GI50 (SW-620): > 100 µM (inactive)

CC(C)(C)c1ccc(-c2nnc(-c3cc(C#N)cc(-c4nnc(-c5ccc(C(C)(C)C)cc5)o4)c3)o2)cc1
GI50 (U-251): > 100 µM (inactive) | GI50 (HCT-116): > 100 µM (inactive) | GI50 (UACC-257): > 100 µM (inactive) | GI50 (DU-145): > 100 µM (inactive) | GI50 (CAKI-1): > 100 µM (inactive) | GI50 (SK-MEL-28): > 100 µM (inactive) | GI50 (EKVX): > 100 µM (inactive) | GI50 (NCI-H23): > 100 µM (inactive) | GI50 (HT-29): > 100 µM (inactive) | GI50 (OVCAR-5): > 100 µM (inactive) | GI50 (OVCAR-8): > 100 µM (inactive) | GI50 (MDA-N): > 100 µM (inactive) | GI50 (HOP-62): 60.1 µM (inactive) | GI50 (NCI/ADR-RES): > 100 µM (inactive) | GI50 (A498): > 100 µM (inactive) | GI50 (HCT-15): > 100 µM | GI50 (SW-620): > 100 µM (inactive)

O=C(O)C(/C=C/c1ccccc1)c1ccccc1 (stereo not drawn)
GI50 (SR): 5.11 µM (inactive) | GI50 (U-251): > 100 µM (inactive) | GI50 (HCT-116): > 100 µM (inactive) | GI50 (UACC-257): > 100 µM (inactive) | GI50 (DU-145): > 100 µM (inactive) | GI50 (SK-MEL-28): > 100 µM (inactive) | GI50 (EKVX): > 100 µM (inactive) | GI50 (NCI-H23): > 100 µM (inactive) | GI50 (HT-29): > 100 µM (inactive) | GI50 (OVCAR-5): > 100 µM (inactive) | GI50 (OVCAR-8): > 100 µM (inactive) | GI50 (MDA-N): > 100 µM (inactive) | GI50 (HOP-62): > 100 µM (inactive) | GI50 (NCI/ADR-RES): > 100 µM (inactive) | GI50 (A498): > 100 µM (inactive) | GI50 (HCT-15): > 100 µM | GI50 (SW-620): > 100 µM (inactive)

N#Cc1c(N)c2c(c(-c3ccccc3)c1-c1ccccc1)C(=O)N(O)C2=O
GI50 (SR): 62.7 µM (inactive) | GI50 (U-251): 94.6 µM (inactive) | GI50 (HCT-116): 19.5 µM (inactive) | GI50 (UACC-257): > 100 µM (inactive) | GI50 (DU-145): 39.4 µM (inactive) | GI50 (CAKI-1): > 100 µM (inactive) | GI50 (SK-MEL-28): 40.7 µM (inactive) | GI50 (EKVX): 36.6 µM (inactive) | GI50 (OVCAR-5): 63 µM (inactive) | GI50 (OVCAR-8): > 100 µM (inactive) | GI50 (MDA-N): 82 µM (inactive) | GI50 (NCI/ADR-RES): > 100 µM (inactive) | GI50 (A498): 37.8 µM (inactive) | GI50 (HCT-15): 70 µM | GI50 (SW-620): 96.8 µM (inactive)

CON(C)C(=O)C(C)N(Cc1ccccc1)Cc1ccccc1 (stereo not drawn)
GI50 (SR): 69 µM (inactive) | GI50 (U-251): > 100 µM (inactive) | GI50 (HCT-116): 50.2 µM (inactive) | GI50 (UACC-257): 82 µM (inactive) | GI50 (DU-145): > 100 µM (inactive) | GI50 (SK-MEL-28): > 100 µM (inactive) | GI50 (EKVX): 65.8 µM (inactive) | GI50 (NCI-H23): 46.3 µM (inactive) | GI50 (HT-29): 79.1 µM (inactive) | GI50 (OVCAR-5): > 100 µM (inactive) | GI50 (OVCAR-8): > 100 µM (inactive) | GI50 (MDA-N): > 100 µM (inactive) | GI50 (HOP-62): 23.3 µM (inactive) | GI50 (NCI/ADR-RES): 45.5 µM (inactive) | GI50 (A498): > 100 µM (inactive) | GI50 (HCT-15): 34.8 µM | GI50 (SW-620): > 100 µM (inactive)
